Assays:
Assay in all cases: relative viability (nuclei count vs DMSO), 5 days (fraction); higher = more cells survive
[1] = compound: C1=CC(=CC=C1C2=CC(=C(S2)NC(=O)N)C(=O)N)F [TPCA-1] + O=C(c1cc(Cc2n[nH]c(=O)c3ccccc23)ccc1F)N1CCN(C(=O)C2CC2)CC1 [Olaparib] (partner 8 µM)
In short: (§1)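 Dosing by pin tool came one day after lung cancer cell lines were seeded in 1536-well plates, using either one drug or a fixed anchor-drug dose plus five library-drug doses (not always all listed) in √10 steps. After 5 days, nuclei were counted on 4× images. Relative viability is treated-well nuclei count divided by vehicle-well nuclei count, and values are medians of duplicate plates.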

[2] = compound: C1=CC(=CC=C1C2=CC(=C(S2)NC(=O)N)C(=O)N)F [TPCA-1] + CS(=O)(=O)CCNCc1ccc(-c2ccc3ncnc(Nc4ccc(OCc5cccc(F)c5)c(Cl)c4)c3c2)o1 [Lapatinib] (partner 2 µM)
In short: as §1

[3] = compound: C1/C(=C\C2=CC=CS2)/C(=O)/C(=C/C3=CC=CS3)/C1 + CC(=O)c1c(C)c2cnc(Nc3ccc(N4CCNCC4)cn3)nc2n(C2CCCC2)c1=O [Palbociclib] (partner 0.5 µM)
In short: as §1

[4] = compound: C1/C(=C\C2=CC=CS2)/C(=O)/C(=C/C3=CC=CS3)/C1 + CS(=O)(=O)N1CCN(Cc2cc3nc(-c4cccc5[nH]ncc45)nc(N4CCOCC4)c3s2)CC1 [Pictilisib] (partner 1 µM)
In short: as §1

Row | Cell Line | relative viability ([1]; first compound 0.04 µM) | relative viability ([1]; first compound 0.1265 µM) | relative viability ([1]; first compound 0.4 µM) | relative viability ([1]; first compound 1.265 µM) | relative viability ([1]; first compound 4 µM) | relative viability ([2]; first compound 0.04 µM) | relative viability ([2]; first compound 0.1265 µM) | relative viability ([2]; first compound 0.4 µM) | relative viability ([2]; first compound 1.265 µM) | relative viability ([2]; first compound 4 µM) | relative viability ([3]; first compound 0.2 µM) | relative viability ([3]; first compound 0.6325 µM) | relative viability ([3]; first compound 2 µM) | relative viability ([3]; first compound 6.325 µM) | relative viability ([3]; first compound 20 µM) | relative viability ([4]; first compound 0.2 µM) | relative viability ([4]; first compound 0.6325 µM) | relative viability ([4]; first compound 2 µM) | relative viability ([4]; first compound 6.325 µM) | relative viability ([4]; first compound 20 µM)
1 | NCI-H358 | 0.619 | 0.48 | 0.646 | 0.546 | 0.32 | 0.479 | 0.428 | 0.462 | 0.361 | 0.334 | 0.187 | 0.135 | 0.152 | 0.143 | 0.125 | 0.37 | 0.312 | 0.412 | 0.182 | 0.453
2 | PC-3 [JPC-3] | 1.19 | 1.17 | 1.11 | 1.05 | 1 | 0.435 | 0.487 | 0.481 | 0.454 | 0.434 | – | 0.587 | 0.5 | 0.43 | 0.523 | 0.65 | 0.765 | 0.798 | 0.629 | 0.719
3 | NCI-H1792 | 0.432 | 0.281 | 0.382 | 0.352 | 0.202 | 0.964 | 0.893 | 0.843 | 0.9 | 0.455 | 0.665 | 0.656 | 0.713 | 0.331 | 0.627 | 0.257 | 0.314 | 0.298 | – | 0.247
4 | NCI-H596 | 0.722 | 0.674 | 0.671 | 0.828 | 0.479 | 1.06 | 1.08 | 1.15 | 1.13 | 1.07 | – | – | – | – | – | 0.412 | 0.419 | 0.378 | 0.368 | 0.391
5 | RERF-LC-KJ | 0.952 | 0.857 | 0.884 | 0.911 | 0.78 | 0.966 | 0.79 | 0.808 | 0.809 | 0.765 | 1.04 | 1.2 | 1.05 | 0.965 | 0.852 | 0.566 | 0.583 | 0.583 | 0.42 | 0.494
6 | NCI-H322M | 0.78 | 0.785 | 0.77 | 0.73 | 0.41 | 0.646 | 0.612 | 0.589 | 0.65 | 0.492 | 0.517 | 0.508 | 0.529 | 0.431 | 0.468 | 0.541 | 0.526 | 0.654 | 0.538 | 0.522
7 | COR-L 105 | 0.712 | 0.7 | 0.665 | 0.752 | 0.697 | 0.379 | 0.368 | 0.384 | 0.272 | 0.268 | 0.379 | 0.405 | 0.443 | 0.43 | 0.401 | 0.409 | 0.364 | 0.386 | 0.327 | 0.356
8 | NCI-H1993 | 1.23 | 1.03 | 0.958 | 1.07 | 0.99 | 0.855 | – | 0.735 | 0.765 | 1.11 | 0.643 | 0.639 | 0.595 | 0.562 | 0.646 | 0.877 | 0.793 | 0.851 | 0.684 | 0.79
9 | NCI-H1437 | 0.665 | 0.637 | 0.611 | 0.591 | 0.618 | 0.888 | 0.764 | 0.85 | 0.742 | 0.604 | 0.322 | 0.314 | 0.282 | 0.307 | 0.336 | 0.437 | 0.402 | 0.406 | 0.404 | 0.36
10 | EBC-1 | 0.759 | 0.606 | 0.784 | 0.727 | 0.715 | 0.201 | 0.233 | 0.196 | 0.224 | 0.248 | – | – | – | – | – | 0.417 | 0.39 | 0.383 | 0.391 | 0.457
11 | NCI-H1563 | – | – | – | – | – | 1.08 | 0.943 | 0.919 | 0.736 | 0.795 | – | – | – | – | – | 0.753 | 0.678 | 0.634 | 0.662 | 0.636
12 | NCI-H1648 | 0.799 | 0.81 | 0.626 | 1.1 | 0.933 | – | – | – | – | – | 0.271 | 0.497 | 0.271 | 0.262 | 0.288 | – | – | – | – | –
13 | NCI-H1299 | 0.947 | 0.963 | 0.941 | 0.932 | 0.939 | 0.962 | 0.979 | 0.95 | 0.963 | 0.949 | – | – | – | – | – | 0.79 | 0.863 | 0.806 | 0.758 | 0.799
14 | A549 | 0.342 | 0.313 | 0.507 | 0.201 | 0.0946 | 1.03 | 0.922 | 1.1 | 0.959 | 0.969 | – | – | – | – | – | 0.486 | 0.511 | 0.447 | – | 0.456
15 | NCI-H1703 | 0.443 | 0.39 | 0.433 | 0.398 | 0.424 | 1.07 | 0.902 | 1.18 | 0.805 | 0.988 | – | – | – | – | – | 0.278 | 0.247 | 0.259 | 0.227 | 0.248
16 | NCI-H522 | 0.834 | 0.504 | 0.642 | 0.643 | 0.556 | – | – | – | – | – | 0.855 | 1.33 | 1.03 | 0.735 | 0.917 | – | – | – | – | –
17 | Calu-6 | 0.671 | 0.57 | 0.553 | 0.539 | 0.511 | 1.15 | 1.04 | 1.01 | 0.956 | 0.91 | – | – | – | – | – | 1.04 | 1.05 | 0.955 | 0.885 | 0.82
18 | ChaGo-K-1 | 0.434 | 0.321 | 0.445 | 0.374 | 0.221 | – | – | – | – | – | 0.956 | 0.954 | 0.84 | 0.719 | 0.479 | 0.653 | 0.699 | 0.756 | 0.487 | 0.538
19 | LCLC-103H | 0.747 | 0.788 | 0.782 | 0.868 | 0.779 | – | – | – | – | – | 0.49 | 0.456 | 0.469 | 0.426 | 0.469 | 0.573 | 0.57 | 0.757 | 0.483 | 0.551
20 | NCI-H441 | 0.461 | 0.454 | 0.53 | 0.443 | 0.436 | – | – | – | – | – | 0.242 | 0.217 | 0.234 | 0.197 | 0.25 | 0.523 | 0.418 | 0.541 | 0.489 | 0.523

— the supplement of paper PMC10307832
